Laboratory results taken from patent publication US4515941A, “23-Demycinosyldesmycosin derivatives” (Toyo Jozo Kabushiki Kaisha, priority 1982, dated 1985).
In brackets after ≈: the same amount, converted by molar mass. Like-named read-outs stand apart in the source and are kept apart here.

Columns and labels:
Type in all cases: cell-based
[1] = tested on: Pseudomonas aeruginosa IAM 1095; assay: MIC, Pseudomonas aeruginosa IAM 1095; details: IAM1095; Pseudomonas aeruginosa IAM 1095; read-out: MIC
[2] = tested on: Shigella flexineri type 3a; assay: MIC, Shigella flexineri type 3a; details: TYPE3A
[3] = tested on: Streptococcus pyogenes N.Y.5; assay: MIC, Streptococcus pyogenes N.Y.5; details: read-out: MIC
[4] = tested on: Shigella sonnei E33; assay: MIC, Shigella sonnei E33
[5] = tested on: Staphylococcus aureus 0127; assay: MIC, Staphylococcus aureus 0127 (macrolide resistant)
Source text: (§1) *macrolide resistant bacteria A group (clinical isolates of erythromycin,
(§2) oleandomycin and 16membered macrolide antibiotic resistant strains.)

[6] = tested on: Staphylococcus epidermis sp-al-1; assay: MIC, Staphylococcus epidermis sp-al-1; details: SPAL1; Staphylococcus epidermis sp-al-1; read-out: MIC
[7] = tested on: Staphylococcus aureus ATCC 6538P; assay: MIC, Staphylococcus aureus ATCC 6538P; details: ATCC6538P, read-out: MIC
[8] = tested on: Staphylococcus aureus MS353 A0; assay: MIC, Staphylococcus aureus MS353 A0 (macrolide resistant); details: MS353A0, macrolide resistant bacteria A group
Source text: as §1, §2

[9] = tested on: Staphylococcus aureus 0119; assay: MIC, Staphylococcus aureus 0119 (macrolide resistant); details: macrolide resistant bacteria A group
Source text: as §1, §2

[10] = tested on: Bacillus subtilis ATC 6633; assay: MIC, Bacillus subtilis ATC 6633; details: ATC6633; Bacillus subtilis ATC 6633; read-out: MIC
[11] = tested on: Klebsiella pneumoniae ATCC 10031; assay: MIC, Klebsiella pneumoniae ATCC 10031; details: ATCC10031; Klebsiella pneumoniae ATCC 10031; read-out: MIC
[12] = tested on: Staphylococcus aureus MS353; assay: MIC, Staphylococcus aureus MS353; details: Staphylococcus aureus MS353; read-out: MIC
[13] = tested on: Sarcina lutea ATCC 9341; assay: MIC, Sarcina lutea ATCC 9341; details: Micrococcus luteus, ATCC9341
[14] = tested on: Salmonella enteritidis Gaertner; assay: MIC, Salmonella enteritidis Gaertner; details: Salmonella enterica; Salmonella enteritidis Gaertner; read-out: MIC
[15] = tested on: Escherichia coli B; assay: MIC, Escherichia coli B
[16] = tested on: Serratia marcescens; assay: MIC, Serratia marcescens; details: read-out: MIC
[17] = tested on: Proteus vulgaris OX19; assay: MIC, Proteus vulgaris OX19; details: Proteus vulgaris OX19; read-out: MIC
[18] = tested on: Streptococcus agalactiae 1020; assay: MIC, Streptococcus agalactiae 1020; details: Streptococcus agalactiae 1020; read-out: MIC
[19] = tested on: Corynebacterium diptheriae P.Y.8; assay: MIC, Corynebacterium diptheriae P.Y.8; details: Corynebacterium diptheriae P.Y.8; read-out: MIC
[20] = tested on: Salmonella typhosa H901; assay: MIC, Salmonella typhosa H901; details: Salmonella enterica, TYPHOSA
[21] = tested on: Escherichia coli NIHJ-JC2; assay: MIC, Escherichia coli NIHJ-JC2; details: NIHJJC2
[22] = tested on: Micrococcus flavus ATCC 10240; assay: MIC, Micrococcus flavus ATCC 10240; details: ATCC10240; Micrococcus flavus ATCC 10240; read-out: MIC
[23] = tested on: Streptococcus pyogenes 1022; assay: MIC, Streptococcus pyogenes 1022 (macrolide resistant); details: macrolide resistant bacteria A group
Source text: as §1, §2

[24] = tested on: Streptococcus faecalis 1501; assay: MIC, Streptococcus faecalis 1501; details: Enterococcus faecalis; Streptococcus faecalis 1501; read-out: MIC
[25] = tested on: Staphylococcus aureus MS353 C36; assay: MIC, Staphylococcus aureus MS353 C36; details: MS353C36
[26] = Staphylococcus aureus 0127, macrolide resistant bacteria A group, read-out: MIC
[27] = Streptococcus pyogenes 1022, read-out: MIC

Row | Structure (SMILES) | MIC [1] | MIC [2] | MIC [3] | MIC [4] | MIC [6] | MIC [7] | MIC [8] | MIC [9] | MIC [10] | MIC [11] | MIC [12] | MIC [13] | MIC [14] | MIC [15] | MIC [16] | MIC [17] | MIC [18] | MIC [19] | MIC [20] | MIC [21] | also measured
1 | CCC1OC(=O)CC(O)C(C)C(OC2OC(C)C(O)C(N(C)C)C2O)C(CC=O)CC(C)C(=O)C=CC(C)=CC1COc1ccc(C)cc1 (stereo not shown) | > 100 µg/mL | 50 µg/mL (≈ 72.7 µM) | ≤ 0.05 µg/mL | > 100 µg/mL | ≤ 0.05 µg/mL | 0.2 µg/mL (≈ 0.291 µM) | 50 µg/mL (≈ 72.7 µM) | 50 µg/mL (≈ 72.7 µM) | 0.1 µg/mL (≈ 0.145 µM) | 6.3 µg/mL (≈ 9.16 µM) | 0.2 µg/mL (≈ 0.291 µM) | ≤ 0.05 µg/mL | > 100 µg/mL | 50 µg/mL (≈ 72.7 µM) | 100 µg/mL (≈ 145 µM) | 25 µg/mL (≈ 36.3 µM) | ≤ 0.05 µg/mL | ≤ 0.05 µg/mL | > 100 µg/mL | 100 µg/mL (≈ 145 µM) | MIC [5, 26]: 50 µg/mL (≈ 72.7 µM); MIC [22]: ≤ 0.05 µg/mL; MIC [23, 27]: 25 µg/mL (≈ 36.3 µM); MIC [24]: 0.1 µg/mL (≈ 0.145 µM); MIC [25]: 0.2 µg/mL (≈ 0.291 µM)
2 | CCc1ccc(OCC2C=C(C)C=CC(=O)C(C)CC(CC=O)C(OC3OC(C)C(O)C(N(C)C)C3O)C(C)C(O)CC(=O)OC2CC)cc1 (stereo not shown) | > 100 µg/mL | > 100 µg/mL | 0.1 µg/mL (≈ 0.142 µM) | > 100 µg/mL | 0.2 µg/mL (≈ 0.285 µM) | 0.4 µg/mL (≈ 0.57 µM) | 25 µg/mL (≈ 35.6 µM) | 25 µg/mL (≈ 35.6 µM) | 0.4 µg/mL (≈ 0.57 µM) | 6.3 µg/mL (≈ 8.98 µM) | 0.4 µg/mL (≈ 0.57 µM) | ≤ 0.05 µg/mL | > 100 µg/mL | > 100 µg/mL | > 100 µg/mL | 100 µg/mL (≈ 142 µM) | 0.1 µg/mL (≈ 0.142 µM) | ≤ 0.05 µg/mL | > 100 µg/mL | > 100 µg/mL | MIC [5, 26]: 25 µg/mL (≈ 35.6 µM); MIC [22]: ≤ 0.05 µg/mL; MIC [23, 27]: 12.5 µg/mL (≈ 17.8 µM); MIC [24]: 0.4 µg/mL (≈ 0.57 µM); MIC [25]: 0.4 µg/mL (≈ 0.57 µM)
3 | CCC1OC(=O)CC(O)C(C)C(OC2OC(C)C(O)C(N(C)C)C2O)C(CC=O)CC(C)C(=O)C=CC(C)=CC1COc1ccc(Cl)cc1 (stereo not shown) | > 100 µg/mL | 6.3 µg/mL (≈ 8.89 µM) | ≤ 0.05 µg/mL | 50 µg/mL (≈ 70.6 µM) | ≤ 0.05 µg/mL | 0.1 µg/mL (≈ 0.141 µM) | 25 µg/mL (≈ 35.3 µM) | 50 µg/mL (≈ 70.6 µM) | 0.1 µg/mL (≈ 0.141 µM) | 3.1 µg/mL (≈ 4.38 µM) | 0.1 µg/mL (≈ 0.141 µM) | ≤ 0.05 µg/mL | > 100 µg/mL | 50 µg/mL (≈ 70.6 µM) | 50 µg/mL (≈ 70.6 µM) | 12.5 µg/mL (≈ 17.6 µM) | ≤ 0.05 µg/mL | ≤ 0.05 µg/mL | > 100 µg/mL | 50 µg/mL (≈ 70.6 µM) | MIC [5, 26]: 25 µg/mL (≈ 35.3 µM); MIC [22]: ≤ 0.05 µg/mL; MIC [23, 27]: 12.5 µg/mL (≈ 17.6 µM); MIC [24]: 0.1 µg/mL (≈ 0.141 µM); MIC [25]: ≤ 0.05 µg/mL
4 | CCC1OC(=O)CC(O)C(C)C(OC2OC(C)C(O)C(N(C)C)C2O)C(CC=O)CC(C)C(=O)C=CC(C)=CC1COc1ccc(Br)cc1 (stereo not shown) | > 100 µg/mL | 12.5 µg/mL (≈ 16.6 µM) | ≤ 0.05 µg/mL | 100 µg/mL (≈ 133 µM) | 0.1 µg/mL (≈ 0.133 µM) | 0.1 µg/mL (≈ 0.133 µM) | 25 µg/mL (≈ 33.2 µM) | 25 µg/mL (≈ 33.2 µM) | 0.2 µg/mL (≈ 0.266 µM) | 3.1 µg/mL (≈ 4.12 µM) | 0.2 µg/mL (≈ 0.266 µM) | ≤ 0.05 µg/mL | > 100 µg/mL | 25 µg/mL (≈ 33.2 µM) | 50 µg/mL (≈ 66.4 µM) | 25 µg/mL (≈ 33.2 µM) | ≤ 0.05 µg/mL | ≤ 0.05 µg/mL | > 100 µg/mL | 100 µg/mL (≈ 133 µM) | MIC [5, 26]: 25 µg/mL (≈ 33.2 µM); MIC [22]: ≤ 0.05 µg/mL; MIC ([23]; Streptococcus pyogenes, 1022, Streptococcus pyogenes 1022): 12.5 µg/mL (≈ 16.6 µM); MIC [24]: 0.2 µg/mL (≈ 0.266 µM); MIC [25]: 0.2 µg/mL (≈ 0.266 µM)
5 | CCC1OC(=O)CC(O)C(C)C(OC2OC(C)C(O)C(N(C)C)C2O)C(CC=O)CC(C)C(=O)C=CC(C)=CC1COc1ccc(Cl)cc1Cl (stereo not shown) | > 100 µg/mL | 25 µg/mL (≈ 33.7 µM) | ≤ 0.05 µg/mL | > 100 µg/mL | ≤ 0.05 µg/mL | 0.2 µg/mL (≈ 0.269 µM) | 12.5 µg/mL (≈ 16.8 µM) | 25 µg/mL (≈ 33.7 µM) | 0.1 µg/mL (≈ 0.135 µM) | 3.1 µg/mL (≈ 4.17 µM) | 0.2 µg/mL (≈ 0.269 µM) | ≤ 0.05 µg/mL | > 100 µg/mL | > 100 µg/mL | 25 µg/mL (≈ 33.7 µM) | 25 µg/mL (≈ 33.7 µM) | ≤ 0.05 µg/mL | ≤ 0.05 µg/mL | > 100 µg/mL | > 100 µg/mL | MIC ([5]; Staphylococcus aureus, 0127): 12.5 µg/mL (≈ 16.8 µM); MIC [22]: ≤ 0.05 µg/mL; MIC [23, 27]: 6.3 µg/mL (≈ 8.48 µM); MIC [24]: 0.1 µg/mL (≈ 0.135 µM); MIC [25]: 0.1 µg/mL (≈ 0.135 µM)
6 | CCC1OC(=O)CC(O)C(C)C(OC2OC(C)C(O)C(N(C)C)C2O)C(CC=O)CC(C)C(=O)C=CC(C)=CC1COc1ccc(OC)cc1 (stereo not shown) | > 100 µg/mL | 50 µg/mL (≈ 71 µM) | ≤ 0.05 µg/mL | > 100 µg/mL | ≤ 0.05 µg/mL | 0.2 µg/mL (≈ 0.284 µM) | 100 µg/mL (≈ 142 µM) | > 100 µg/mL | 0.2 µg/mL (≈ 0.284 µM) | 3.1 µg/mL (≈ 4.4 µM) | 0.2 µg/mL (≈ 0.284 µM) | ≤ 0.05 µg/mL | > 100 µg/mL | 100 µg/mL (≈ 142 µM) | > 100 µg/mL | 50 µg/mL (≈ 71 µM) | ≤ 0.05 µg/mL | ≤ 0.05 µg/mL | > 100 µg/mL | > 100 µg/mL | MIC [5, 26]: > 100 µg/mL; MIC [22]: ≤ 0.05 µg/mL; MIC [23, 27]: 100 µg/mL (≈ 142 µM); MIC [24]: 0.2 µg/mL (≈ 0.284 µM); MIC [25]: 0.1 µg/mL (≈ 0.142 µM)
7 | CCC1OC(=O)CC(O)C(C)C(OC2OC(C)C(O)C(N(C)C)C2O)C(CC=O)CC(C)C(=O)C=CC(C)=CC1COc1cccc([N+](=O)[O-])c1 (stereo not shown) | 50 µg/mL (≈ 69.6 µM) | 12.5 µg/mL (≈ 17.4 µM) | ≤ 0.05 µg/mL | 100 µg/mL (≈ 139 µM) | ≤ 0.05 µg/mL | 0.1 µg/mL (≈ 0.139 µM) | 100 µg/mL (≈ 139 µM) | > 100 µg/mL | ≤ 0.05 µg/mL | 1.6 µg/mL (≈ 2.23 µM) | 0.1 µg/mL (≈ 0.139 µM) | ≤ 0.05 µg/mL | > 100 µg/mL | 50 µg/mL (≈ 69.6 µM) | 50 µg/mL (≈ 69.6 µM) | 25 µg/mL (≈ 34.8 µM) | ≤ 0.05 µg/mL | ≤ 0.05 µg/mL | 100 µg/mL (≈ 139 µM) | 100 µg/mL (≈ 139 µM) | MIC [5, 26]: 100 µg/mL (≈ 139 µM); MIC [22]: ≤ 0.05 µg/mL; MIC [23, 27]: 50 µg/mL (≈ 69.6 µM); MIC [24]: 0.1 µg/mL (≈ 0.139 µM); MIC [25]: 0.1 µg/mL (≈ 0.139 µM)
